# Measured values published in US20230122249A1, “1H-PYRAZOLO[4,3-d]PYRIMIDINE COMPOUNDS AS TOLL-LIKE RECEPTOR 7 (TLR7) AGONISTS” (BRISTOL-MYERS SQUIBB COMPANY, priority 2020, published 2023).
# Assays:
# human TLR7 = biological target: T1, human TLR7 (Homo sapiens, UniProt Q9NYK1); test: Human TLR7 agonist activity (hTLR7 reporter) assay in HEK-Blue TLR7 cells, SEAP readout; assay type: cell-based; settings: 18 h treatment, average where assay repeated
# T1 construct: host or cells: HEK-Blue TLR7 cells (engineered human embryonic kidney cells)
# T1 sequence (Q9NYK1 27-1049): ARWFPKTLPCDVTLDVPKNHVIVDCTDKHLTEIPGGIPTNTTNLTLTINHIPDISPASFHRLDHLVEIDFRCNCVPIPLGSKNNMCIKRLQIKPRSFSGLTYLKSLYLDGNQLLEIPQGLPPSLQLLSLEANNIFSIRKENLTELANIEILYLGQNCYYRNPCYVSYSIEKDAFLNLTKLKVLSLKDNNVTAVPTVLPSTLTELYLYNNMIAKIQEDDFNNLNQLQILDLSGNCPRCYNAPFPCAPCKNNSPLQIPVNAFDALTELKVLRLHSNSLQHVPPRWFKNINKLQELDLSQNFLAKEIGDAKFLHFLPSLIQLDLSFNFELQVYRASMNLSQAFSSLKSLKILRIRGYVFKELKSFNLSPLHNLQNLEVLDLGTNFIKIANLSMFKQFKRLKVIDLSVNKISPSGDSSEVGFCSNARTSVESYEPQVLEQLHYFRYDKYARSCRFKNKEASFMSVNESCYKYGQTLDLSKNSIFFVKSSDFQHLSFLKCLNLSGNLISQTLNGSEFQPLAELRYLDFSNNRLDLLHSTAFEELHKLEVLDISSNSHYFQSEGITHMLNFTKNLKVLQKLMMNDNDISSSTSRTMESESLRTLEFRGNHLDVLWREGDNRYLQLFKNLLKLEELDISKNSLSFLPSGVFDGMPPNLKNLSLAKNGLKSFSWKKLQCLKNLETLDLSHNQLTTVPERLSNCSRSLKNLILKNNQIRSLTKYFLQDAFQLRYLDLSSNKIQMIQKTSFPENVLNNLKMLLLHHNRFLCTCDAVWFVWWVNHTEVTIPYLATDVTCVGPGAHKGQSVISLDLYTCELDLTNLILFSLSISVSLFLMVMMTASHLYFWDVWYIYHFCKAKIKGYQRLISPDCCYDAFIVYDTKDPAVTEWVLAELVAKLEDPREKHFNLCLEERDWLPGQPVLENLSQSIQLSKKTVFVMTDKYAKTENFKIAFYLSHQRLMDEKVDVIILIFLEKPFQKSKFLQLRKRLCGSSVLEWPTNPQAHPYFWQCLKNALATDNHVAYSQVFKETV
# Outline: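 HEK-Blue TLR7 cells (15,000/well) treated with compound for 18 h at 37 °C, 5% CO2. Secreted SEAP measured with Quanti-Blue, 30 min, OD 620 nm. EC50 taken as concentration giving half-maximal response between baseline and maximum.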
# [1] = system: CD69 in human whole blood; test: Induction of CD69 in human whole blood (hWB); assay type: cell-based; settings: heparinized human whole blood, 17 h, CD69 surface staining; 100% set to 1 uM resiquimod; average where assay repeated
# Outline: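 hWB stimulated with compound at 1 uM final (1 mM stock), 37° C o/n (17 hrs). Surface CD69-PE staining with CD14/CD19 gating, fix/lysis, then flow cytometry read. IC50 curves with 100% set to 1 uM resiquimod.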
SMILES,EC50 (human TLR7) [µM],EC50 [1] [µM]
CN1CCN(C(=O)c2ccc(Cn3ncc4nc(N)nc(NCC5CC6(CC6)C5)c43)c(OC(F)F)c2)CC1 [Compound 221],0.247,0.0506
COc1cc(C(=O)N(C)CCN(C)C)ccc1Cn1ncc2nc(N)nc(NCC3CC4(CC4)C3)c21 [Compound 222],0.016,0.0024
Nc1nc(NCC2CC3(CC3)C2)c2c(cnn2Cc2ccc(C(=O)C3C[C@H]4CNC[C@H]4N3)cc2OC(F)F)n1 (stereo partly shown) [Compound 224],1.4,0.52
COc1cc(C(=O)NC2CCN(CCO)CC2)ccc1Cn1ncc2nc(N)nc(NCC3CC4(CC4)C3)c21 [Compound 225],1.22,0.218
COc1cc(C(=O)N2CCC(S(C)(=O)=O)CC2)ccc1Cn1ncc2nc(N)nc(NCC3CC4(CC4)C3)c21 [Compound 226],0.425,0.555
COc1cc(C(=O)N2CCS(=O)(=O)CC2)ccc1Cn1ncc2nc(N)nc(NCC3CC4(CC4)C3)c21 [Compound 227],0.507,0.125
COc1cc(C(=O)N(CCO)CCO)ccc1Cn1ncc2nc(N)nc(NCC3CC4(CC4)C3)c21 [Compound 228],0.894,0.553
CCC[C@@H](CCO)Nc1nc(N)nc2cnn(Cc3ccc(C(=O)N4CC5(C4)CN(C4CCOCC4)C5)cc3OC)c12 [Compound 229],0.0379,0.0376
COc1cc(C(=O)NC2CCN(CC(=O)N(C)C)CC2)ccc1Cn1ncc2nc(N)nc(NCC3CC4(CC4)C3)c21 [Compound 230],0.276,0.197
COc1cc(C(=O)NCCCN(C)C)ccc1Cn1ncc2nc(N)nc(NCC3CC4(CC4)C3)c21 [Compound 231],0.166,0.0324
CCC[C@@H](CCO)Nc1nc(N)nc2cnn(Cc3ccc(C(=O)N4CC5(C4)CN(C(C)C)C5)cc3OC)c12 [Compound 232],0.0371,0.0329
CCC[C@@H](CCO)Nc1nc(N)nc2cnn(Cc3ccc(C(=O)N4CC5(CN(CCO)C5)C4)cc3OC)c12 [Compound 233],0.412,0.265
COc1cc(C(=O)NCCN(C)C)ccc1Cn1ncc2nc(N)nc(NCC3CC4(CC4)C3)c21 [Compound 234],0.0932,0.0102
COc1cc(C(=O)N2CCN(C(C)=O)CC2)ccc1Cn1ncc2nc(N)nc(NCC3CC4(CC4)C3)c21 [Compound 235],0.146,0.223
COc1cc(C(=O)N2CCN(S(C)(=O)=O)CC2)ccc1Cn1ncc2nc(N)nc(NCC3CC4(CC4)C3)c21 [Compound 236],0.199,0.284
COc1cc(C(=O)N2CCN(CC(F)(F)F)CC2)ccc1Cn1ncc2nc(N)nc(NCC3CC4(CC4)C3)c21 [Compound 237],0.589,0.958
COc1cc(C(=O)NC2CCN(CC(C)(C)O)CC2)ccc1Cn1ncc2nc(N)nc(NCC3CC4(CC4)C3)c21 [Compound 238],0.086,0.0352
COc1cc(C(=O)N2CCN(CC(C)(C)O)CC2)ccc1Cn1ncc2nc(N)nc(NCC3CC4(CC4)C3)c21 [Compound 239],0.039,0.11
COc1cc(C(=O)N2C[C@@H]3CN(S(C)(=O)=O)C[C@@H]3C2)ccc1Cn1ncc2nc(N)nc(NCC3CC4(CC4)C3)c21 [Compound 240],0.291,0.845
COc1cc(CN2CC3(C2)CN(C[C@H](C)O)C3)ccc1Cn1ncc2nc(N)nc(NCC3CC4(CC4)C3)c21 [Compound 241],0.0729,0.014
Nc1nc(NCC2CC3(CC3)C2)c2c(cnn2Cc2ccc(CN3CC4(CNC4)C3)cc2OC(F)F)n1 [Compound 242],0.829,0.588
Nc1nc(NCC2CC3(CC3)C2)c2c(cnn2Cc2ccc(CN3C[C@H]4CNC[C@H]4C3)cc2OC(F)F)n1 [Compound 243],0.283,0.193
CCCCNc1nc(N)nc2c(C)nn(Cc3ccc(CN4CC5(C4)CN(C(C)=O)C5)cc3OC)c12 [Compound 244],0.138,0.0311
